The data set can be described thus: Confirmation of precipitation of 4,4′-diisopropylbiphenyl crystals on cooling. It counts as physicochemical. As to conditions: cooled to −10° C. As for the experimental part:
(Confirmation of Precipitation of 4,4′-diisopropylbiphenyl Crystals)
Solutions each containing 4,4′-diisopropylbiphenyl in ratios of 15% by mass and 30% by mass in diisopropylbiphenyl were respectively prepared in an amount of 50 g. Each solution was cooled to −10° C. […] Therefore, as mentioned above, in the case where the content of diisopropylbiphenyl contained in the solution recovery from the tower top of the distillation tower is 7.6% by mass and this amount is 27.6% by mass of the amount of diisopropylbiphenyl measured at the outlet of the reactor, with the result that the amount of 4,4′-diisopropylbiphenyl in diisopropylbiphenyl as a product is 14.1% by mass, there is no particular problem as to the low-temperature characteristics of the product. However, if the amount of diisopropylbiphenyl contained in the solution recovery from the tower top of the distillation tower becomes increase and the amount of 4,4′-diisopropylbiphenyl in diisopropylbiphenyl as a product becomes increase, the low-temperature characteristics will deteriorate.

These results are taken from patent publication US20040073074A1, “Method of continuous production of polyalkylbiphenyls” (priority 2002, published 2004).

On to `CC(C)c1ccc(-c2ccc(C(C)C)cc2)cc1` [4,4′-diisopropylbiphenyl], for which the precipitation of crystals entry is listed as “no precipitation of crystals was observed” (15% by mass in diisopropylbiphenyl) and “a large amount of 4,4′-diisopropylbiphenyl precipitated” (30% by mass in diisopropylbiphenyl).
